Data taken from the supplement of paper PMC5908809.

Key:
[1] = test system: normal NK cells expanded with K562-aAPC; test: percent inhibition of viability; higher = more inhibition; details: 72 h, IL-2 2.5 ng/mL
Protocol: (§1)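 Drug sensitivity and resistance testing on K562-aAPC-expanded normal NK cells: 5 concentrations (10-fold steps over a 10,000-fold range), 72 h at 37 °C, viability by CellTiter-Glo normalised to DMSO and benzethonium chloride controls; DSS from the fitted curve.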

DERL-7 (IL-2 2.5 ng/mL) [2] = test: as above; details: 72 h
IMC-1 (IL-2 20 ng/mL) [3] = test: as above; details: 72 h
KAI3 (IL-2 2.5 ng/mL) [4] = test: as above; details: 72 h
KHYG-1 (IL-2 2.5 ng/mL) [5] = test: as above; details: 72 h
NK-92 (IL-2 2.5 ng/mL) [6] = test: as above; details: 72 h
NK-YS (IL-2 2.5 ng/mL) [7] = test: as above; details: 72 h
NKL (IL-2 2.5 ng/mL) [8] = test: as above; details: 72 h
SNK-6 (IL-2 2.5 ng/mL) [9] = test: as above; details: 72 h
YT (IL-2 2.5 ng/mL) [10] = test: as above; details: 72 h
[11] = test system: normal primary NK cells, pool 1 (3 donors) (IL-2 2.5 ng/mL); test: as above; details: 72 h
[12] = test system: normal primary NK cells, pool 1 (3 donors), resting (IL-2 0 ng/mL); test: as above; details: 72 h
[13] = test system: normal primary NK cells, pool 2 (3 donors) (IL-2 2.5 ng/mL); test: as above; details: 72 h
[14] = test system: normal primary NK cells, pool 3 (3 donors) (IL-2 2.5 ng/mL); test: as above; details: 72 h
[15] = test system: normal NK cells expanded with K562-aAPC; test: drug sensitivity score (DSS) (DSS units); higher = more sensitive; extreme values may be limits of the assay; details: 72 h; IL-2 2.5 ng/mL
Protocol: as §1

DERL-7 (IL-2 2.5 ng/mL) [16] = test: as above; details: 72 h
IMC-1 (IL-2 20 ng/mL) [17] = test: as above; details: 72 h
KAI3 (IL-2 2.5 ng/mL) [18] = test: as above; details: 72 h
KHYG-1 (IL-2 2.5 ng/mL) [19] = test: as above; details: 72 h
NK-92 (IL-2 2.5 ng/mL) [20] = test: as above; details: 72 h
NK-YS (IL-2 2.5 ng/mL) [21] = test: as above; details: 72 h
NKL (IL-2 2.5 ng/mL) [22] = test: as above; details: 72 h
SNK-6 (IL-2 2.5 ng/mL) [23] = test: as above; details: 72 h
YT (IL-2 2.5 ng/mL) [24] = test: as above; details: 72 h
[25] = test system: normal primary NK cells, pool 1 (3 donors) (IL-2 2.5 ng/mL); test: as above; details: 72 h
[26] = test system: normal primary NK cells, pool 1 (3 donors), resting (IL-2 0 ng/mL); test: as above; details: 72 h
[27] = test system: normal primary NK cells, pool 2 (3 donors) (IL-2 2.5 ng/mL); test: as above; details: 72 h
[28] = test system: normal primary NK cells, pool 3 (3 donors) (IL-2 2.5 ng/mL); test: as above; details: 72 h

S=C(NCc1ccc2c(c1)OCO2)N1CCN(c2ncnc3c2oc2ccccc23)CC1 [Amuvatinib] (max concentration tested 10000 nM)
percent inhibition of viability [%]
Details	1 nM	10 nM	100 nM	1000 nM	10000 nM
DERL-7 (IL-2 2.5 ng/mL) [2]	0.19	2.67	18	55.9	90.5
IMC-1 (IL-2 20 ng/mL) [3]	-1.71	-0.29	1.01	41.2	44.1
KAI3 (IL-2 2.5 ng/mL) [4]	3.55	-2.41	7.21	17.6	54.5
KHYG-1 (IL-2 2.5 ng/mL) [5]	-5.63	-5.61	-1.04	24.3	73.6
NK-92 (IL-2 2.5 ng/mL) [6]	-8.12	-11.4	-3.54	36.4	65.1
NK-YS (IL-2 2.5 ng/mL) [7]	-2.83	-6.84	-2.71	12.6	91
NKL (IL-2 2.5 ng/mL) [8]	-10.5	-7.21	6.91	53.6	95
SNK-6 (IL-2 2.5 ng/mL) [9]	13.3	-6.01	16.5	40.9	60.9
YT (IL-2 2.5 ng/mL) [10]	-2.59	-1.83	3.31	19.5	49.5
[1]	-2.56	-1.86	-4.91	0.6	18.6
[11]	-0.46	10.3	3.46	19.5	80.3
[12]	7.55	15.6	5.58	28.6	83.9
[13]	-4.53	2.76	7.13	11.1	69.2
[14]	-1.07	8.45	6.14	11.8	60.8

Details	drug sensitivity score
DERL-7 (IL-2 2.5 ng/mL) [16]	12.9
IMC-1 (IL-2 20 ng/mL) [17]	7.59
KAI3 (IL-2 2.5 ng/mL) [18]	4.97
KHYG-1 (IL-2 2.5 ng/mL) [19]	7.56
NK-92 (IL-2 2.5 ng/mL) [20]	8.04
NK-YS (IL-2 2.5 ng/mL) [21]	7.16
NKL (IL-2 2.5 ng/mL) [22]	11.7
SNK-6 (IL-2 2.5 ng/mL) [23]	9.4
YT (IL-2 2.5 ng/mL) [24]	4.88
[15]	0.55
[25]	7.49
[26]	8.27
[27]	5.67
[28]	5.25
